Measured values published in patent publication US20250320193A1, “OXOISOINDOLINYL SUBSTITUTED PIPERIDINEDIONE DERIVATIVE AND USE THEREOF” (GLUETACS THERAPEUTICS (SHANGHAI) CO., LTD., priority 2022, published 2025).

What was measured:
[1] = target: human Cereblon WT GST-tagged protein (Homo sapiens (Human), UniProt Q96SW2); test: CRBN-binding affinity, HTRF (CEREBLON BINDING kit, CISBIO); conditions: HTRF inhibitory activity
In short: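 Compounds were mixed with GST-tagged human Cereblon WT protein, then with Thalidomide-Red tracer and GST Eu antibody, and binding was read by HTRF. Inhibition rate was calculated from 620 nm emission relative to blank control wells (no protein) and solvent control wells.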

GSPT1 = GSPT1 (Homo sapiens (Human), UniProt P15170+Q96SW2); test: Western blot, substrate protein expression in hPBMC: GSPT1; format: cell-based; conditions: for substrate protein remaining % GSPT1: hPBMC, compound 500 nM, 24 hours, Western blot
In short: (§1)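 hPBMC, 1×10^6 cells/mL, 24 h compound exposure; RIPA lysis, BCA protein assay, SDS-PAGE, NC membrane immunoblot. Densitometry vs internal control → % protein remaining; degradation % = 100% − remaining; DC50 = conc. at 50% of DMSO band signal.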

IKZF3 = IKZF3 (Homo sapiens (Human), UniProt Q96SW2+Q9UKT9); test: Western blot, substrate protein expression in hPBMC: IKZF3; format: cell-based; conditions: hPBMC, compound 500 nM, 24 hours, Western blot
In short: as §1

IKZF1 = IKZF1 (Homo sapiens (Human), UniProt Q13422+Q96SW2); test: Western blot, substrate protein expression in hPBMC: IKZF1; format: cell-based; conditions: hPBMC, compound 500 nM, 24 hours, Western blot
In short: as §1

human Cereblon WT GST-tagged protein, sequence (Q96SW2 whole entry): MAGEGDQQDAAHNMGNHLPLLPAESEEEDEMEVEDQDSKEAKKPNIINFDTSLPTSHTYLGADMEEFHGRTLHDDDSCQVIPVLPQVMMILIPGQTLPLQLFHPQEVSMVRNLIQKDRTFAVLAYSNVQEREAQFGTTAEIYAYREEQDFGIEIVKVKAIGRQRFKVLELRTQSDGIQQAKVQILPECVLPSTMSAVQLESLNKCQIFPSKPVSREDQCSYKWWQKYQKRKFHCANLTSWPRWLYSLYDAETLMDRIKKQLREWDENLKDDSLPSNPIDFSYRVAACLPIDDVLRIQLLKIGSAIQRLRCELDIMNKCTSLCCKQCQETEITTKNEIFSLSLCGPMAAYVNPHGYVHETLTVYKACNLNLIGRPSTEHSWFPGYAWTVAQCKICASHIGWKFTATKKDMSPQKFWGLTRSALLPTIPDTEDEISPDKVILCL
IKZF1, sequence (Q13422 whole entry): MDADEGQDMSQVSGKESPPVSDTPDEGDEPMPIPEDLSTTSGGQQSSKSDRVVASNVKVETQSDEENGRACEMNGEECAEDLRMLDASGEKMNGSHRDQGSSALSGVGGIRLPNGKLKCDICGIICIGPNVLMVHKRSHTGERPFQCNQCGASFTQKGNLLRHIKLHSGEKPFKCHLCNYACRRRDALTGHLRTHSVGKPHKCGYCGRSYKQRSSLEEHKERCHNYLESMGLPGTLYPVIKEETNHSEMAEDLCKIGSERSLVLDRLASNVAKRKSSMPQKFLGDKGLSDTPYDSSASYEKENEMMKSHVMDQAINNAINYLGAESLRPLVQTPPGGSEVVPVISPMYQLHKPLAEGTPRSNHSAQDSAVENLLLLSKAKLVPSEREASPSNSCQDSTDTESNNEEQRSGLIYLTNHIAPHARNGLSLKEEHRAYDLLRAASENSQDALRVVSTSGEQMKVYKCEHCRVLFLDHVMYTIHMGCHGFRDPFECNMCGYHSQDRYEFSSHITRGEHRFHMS
IKZF1, sequence (Q96SW2 whole entry): as the sequence (Q96SW2 whole entry) above
IKZF1, sequence (Q16531 whole entry partner): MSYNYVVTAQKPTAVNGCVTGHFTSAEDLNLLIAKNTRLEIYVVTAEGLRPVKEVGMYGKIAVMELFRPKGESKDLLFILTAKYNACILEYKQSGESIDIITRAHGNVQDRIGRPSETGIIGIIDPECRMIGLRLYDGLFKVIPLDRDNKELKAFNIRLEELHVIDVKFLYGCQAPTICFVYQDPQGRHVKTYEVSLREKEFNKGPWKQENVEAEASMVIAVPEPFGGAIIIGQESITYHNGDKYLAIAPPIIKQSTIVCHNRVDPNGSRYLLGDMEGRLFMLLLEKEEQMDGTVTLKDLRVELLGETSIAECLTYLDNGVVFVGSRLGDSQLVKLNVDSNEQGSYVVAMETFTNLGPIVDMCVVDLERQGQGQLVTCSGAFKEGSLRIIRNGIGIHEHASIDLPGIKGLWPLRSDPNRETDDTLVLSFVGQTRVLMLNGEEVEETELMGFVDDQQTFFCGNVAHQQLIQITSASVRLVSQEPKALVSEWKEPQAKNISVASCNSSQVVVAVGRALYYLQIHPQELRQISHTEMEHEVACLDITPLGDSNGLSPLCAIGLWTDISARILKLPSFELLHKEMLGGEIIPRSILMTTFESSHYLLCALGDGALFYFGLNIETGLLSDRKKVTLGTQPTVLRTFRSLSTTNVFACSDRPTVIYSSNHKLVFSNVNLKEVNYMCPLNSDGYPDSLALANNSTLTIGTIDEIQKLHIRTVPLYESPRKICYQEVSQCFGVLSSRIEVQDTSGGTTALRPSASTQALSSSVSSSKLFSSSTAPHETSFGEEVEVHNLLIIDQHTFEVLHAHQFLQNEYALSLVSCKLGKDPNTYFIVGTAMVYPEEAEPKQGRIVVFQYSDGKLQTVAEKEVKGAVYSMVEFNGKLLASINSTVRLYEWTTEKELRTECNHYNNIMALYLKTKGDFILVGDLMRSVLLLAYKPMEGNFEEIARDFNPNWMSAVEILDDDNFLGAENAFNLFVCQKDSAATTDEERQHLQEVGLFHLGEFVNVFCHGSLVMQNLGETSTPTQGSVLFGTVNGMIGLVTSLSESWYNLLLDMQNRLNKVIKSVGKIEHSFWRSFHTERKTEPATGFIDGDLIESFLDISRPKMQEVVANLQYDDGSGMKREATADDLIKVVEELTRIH
GSPT1, sequence (P15170 whole entry): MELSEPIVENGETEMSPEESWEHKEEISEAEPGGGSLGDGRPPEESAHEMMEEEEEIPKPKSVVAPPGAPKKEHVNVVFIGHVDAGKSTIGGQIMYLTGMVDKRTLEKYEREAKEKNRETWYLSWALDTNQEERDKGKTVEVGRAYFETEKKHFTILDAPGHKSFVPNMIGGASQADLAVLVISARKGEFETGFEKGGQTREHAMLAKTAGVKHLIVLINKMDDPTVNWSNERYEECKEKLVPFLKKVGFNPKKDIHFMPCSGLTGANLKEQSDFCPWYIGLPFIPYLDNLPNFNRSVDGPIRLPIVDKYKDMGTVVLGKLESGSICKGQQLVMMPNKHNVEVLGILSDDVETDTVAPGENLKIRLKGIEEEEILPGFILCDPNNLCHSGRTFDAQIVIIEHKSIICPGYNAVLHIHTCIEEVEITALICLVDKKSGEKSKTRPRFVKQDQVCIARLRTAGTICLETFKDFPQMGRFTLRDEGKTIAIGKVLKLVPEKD
GSPT1, sequence (Q96SW2 whole entry): as the sequence (Q96SW2 whole entry) above
GSPT1, sequence (Q16531 whole entry partner): as the sequence (Q16531 whole entry partner) above
IKZF3, sequence (Q9UKT9 whole entry): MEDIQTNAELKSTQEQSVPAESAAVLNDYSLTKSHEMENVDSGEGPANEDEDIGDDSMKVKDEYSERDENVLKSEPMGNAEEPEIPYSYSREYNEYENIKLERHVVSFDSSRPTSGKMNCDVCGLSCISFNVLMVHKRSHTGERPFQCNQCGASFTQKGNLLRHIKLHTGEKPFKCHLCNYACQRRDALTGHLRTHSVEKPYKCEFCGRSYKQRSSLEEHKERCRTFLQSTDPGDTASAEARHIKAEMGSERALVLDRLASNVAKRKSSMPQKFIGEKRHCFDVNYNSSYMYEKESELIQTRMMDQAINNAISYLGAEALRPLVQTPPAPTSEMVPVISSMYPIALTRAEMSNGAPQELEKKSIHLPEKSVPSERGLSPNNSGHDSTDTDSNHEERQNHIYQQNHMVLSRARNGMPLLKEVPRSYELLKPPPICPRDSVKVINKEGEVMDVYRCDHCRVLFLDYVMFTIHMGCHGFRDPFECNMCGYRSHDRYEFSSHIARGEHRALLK
IKZF3, sequence (Q96SW2 whole entry): as the sequence (Q96SW2 whole entry) above
IKZF3, sequence (Q16531 whole entry partner): as the sequence (Q16531 whole entry partner) above

O=C1CCC(N2Cc3cc(C(=O)N4CCN(C(c5ccccc5)c5ccccn5)CC4)ccc3C2=O)C(=O)N1 (stereo not drawn) [GT-05854, 3-(1-oxo-5-(4-(phenyl(pyridin-2-yl)methyl)piperazine-1-carbonyl)isoindolin-2-yl)piperidine-2,6-dione]
IC50 [1]: 1000 to 1900 nM | substrate protein remaining % GSPT1 (GSPT1): A (A represents 0% ≤ substrate protein remaining % ≤ 50%) | substrate protein remaining % IKZF3 (IKZF3): B (B represents substrate protein remaining % > 50%) | substrate protein remaining % IKZF1 (IKZF1): B (B represents substrate protein remaining % > 50%)

O=C1CCC(N2Cc3cc(CN4CCC(N(c5ccccc5)c5ccccn5)CC4)cc(F)c3C2=O)C(=O)N1 (stereo not drawn) [GT-05858, 3-(7-fluoro-1-oxo-5-((4-(phenyl(pyridin-2-yl)amino)piperidin-1-yl)methyl)isoindolin-2-yl)piperidine-2,6-dione]
IC50 [1]: 500 to 1000 nM | substrate protein remaining % GSPT1 (GSPT1): A (A represents 0% ≤ substrate protein remaining % ≤ 50%) | concentration at which GSPT1 protein was clearly/significantly degraded (Western blot, FIG. 1) (GSPT1; hPBMCs): below 50 nM | substrate protein remaining % IKZF3 (IKZF3): B (B represents substrate protein remaining % > 50%) | substrate protein remaining % IKZF1 (IKZF1): B (B represents substrate protein remaining % > 50%)

O=C1CCC(N2Cc3cc(CC4CN(C(c5ccccc5)c5ccccc5)C4)ccc3C2=O)C(=O)N1 (stereo not drawn) [GT-05859, 3-(5-((1-benzhydrylazetidin-3-yl)methyl)-1-oxoisoindolin-2-yl)piperidine-2,6-dione]
IC50 [1]: < 500 nM | substrate protein remaining % GSPT1 (GSPT1): A (A represents 0% ≤ substrate protein remaining % ≤ 50%) | substrate protein remaining % IKZF3 (IKZF3): B (B represents substrate protein remaining % > 50%) | substrate protein remaining % IKZF1 (IKZF1): A (A represents 0% ≤ substrate protein remaining % ≤ 50%)

O=C1CCC(N2Cc3cc(C4CCN(C(c5ccccc5)c5ccccc5)CC4)ccc3C2=O)C(=O)N1 (stereo not drawn) [GT-05868, 3-(5-(1-benzhydrylpiperidin-4-yl)-1-oxoisoindolin-2-yl)piperidine-2,6-dione]
IC50 [1]: 500 to 1000 nM | substrate protein remaining % GSPT1 (GSPT1): A (A represents 0% ≤ substrate protein remaining % ≤ 50%) | substrate protein remaining % IKZF3 (IKZF3): A (A represents 0% ≤ substrate protein remaining % ≤ 50%) | substrate protein remaining % IKZF1 (IKZF1): A (A represents 0% ≤ substrate protein remaining % ≤ 50%)

O=C1CCC(N2Cc3cc(C(=O)N4CCN(C(c5ccccc5)c5ccccn5)CC4)cc(F)c3C2=O)C(=O)N1 (stereo not drawn) [GT-05877, 3-(7-fluoro-1-oxo-5-(4-(phenyl(pyridin-2-yl)methyl)piperazine-1-carbonyl)isoindolin-2-yl)piperidine-2,6-dione]
IC50 [1]: 1000 to 1900 nM | substrate protein remaining % GSPT1 (GSPT1): A (A represents 0% ≤ substrate protein remaining % ≤ 50%) | substrate protein remaining % IKZF3 (IKZF3): B (B represents substrate protein remaining % > 50%) | substrate protein remaining % IKZF1 (IKZF1): B (B represents substrate protein remaining % > 50%)

O=C1CCC(N2Cc3cc(C(=O)N4CCN(C(c5ccc(F)cc5)c5ccc(F)cc5)CC4)ccc3C2=O)C(=O)N1 (stereo not drawn) [GT-05881, 3-(5-(4-(bis(4-fluorophenyl)methyl)piperazine-1-carbonyl)-1-oxoisoindolin-2-yl)piperidine-2,6-dione]
IC50 [1]: 500 to 1000 nM | substrate protein remaining % GSPT1 (GSPT1): A (A represents 0% ≤ substrate protein remaining % ≤ 50%) | substrate protein remaining % IKZF3 (IKZF3): B (B represents substrate protein remaining % > 50%) | substrate protein remaining % IKZF1 (IKZF1): B (B represents substrate protein remaining % > 50%)

O=C1CCC(N2Cc3cc(C(=O)N4CCN(C(c5ccc(F)cc5)c5ccc(F)cc5)CC4)cc(F)c3C2=O)C(=O)N1 (stereo not drawn) [GT-05882, 3-(5-(4-(bis(4-fluorophenyl)methyl)piperazine-1-carbonyl)-7-fluoro-1-oxoisoindolin-2-yl)piperidine-2,6-dione]
IC50 [1]: 500 to 1000 nM | substrate protein remaining % GSPT1 (GSPT1): A (A represents 0% ≤ substrate protein remaining % ≤ 50%) | substrate protein remaining % IKZF3 (IKZF3): B (B represents substrate protein remaining % > 50%) | substrate protein remaining % IKZF1 (IKZF1): B (B represents substrate protein remaining % > 50%)

O=C1CCC(N2Cc3cc(C(=O)N4CCN(C(c5ccc(Cl)cc5)c5ccc(Cl)cc5)CC4)ccc3C2=O)C(=O)N1 (stereo not drawn) [GT-05886, 3-(5-(4-(bis(4-chlorophenyl)methyl)piperazine-1-carbonyl)-1-oxoisoindolin-2-yl)piperidine-2,6-dione]
IC50 [1]: 1000 to 1900 nM | substrate protein remaining % GSPT1 (GSPT1): A (A represents 0% ≤ substrate protein remaining % ≤ 50%) | substrate protein remaining % IKZF3 (IKZF3): A (A represents 0% ≤ substrate protein remaining % ≤ 50%) | substrate protein remaining % IKZF1 (IKZF1): B (B represents substrate protein remaining % > 50%)

O=C1CCC(N2Cc3c(CN4CC5(CCN(C(c6ccccc6)c6ccccc6)CC5)C4)cccc3C2=O)C(=O)N1 (stereo not drawn) [GT-05905, 3-(4-((7-benzhydryl-2,7-diazaspiro[3.5]nonan-2-yl)methyl)-1-oxoisoindolin-2-yl)piperidine-2,6-dione]
IC50 [1]: 500 to 1000 nM | substrate protein remaining % GSPT1 (GSPT1): A (A represents 0% ≤ substrate protein remaining % ≤ 50%) | substrate protein remaining % IKZF3 (IKZF3): B (B represents substrate protein remaining % > 50%) | substrate protein remaining % IKZF1 (IKZF1): B (B represents substrate protein remaining % > 50%)

CC1CN(C(c2ccccc2)c2ccccc2)CC(C)N1C(=O)c1ccc2c(c1)CN(C1CCC(=O)NC1=O)C2=O (stereo not drawn) [GT-05920, 3-(5-(4-benzhydryl-2,6-dimethylpiperazine-1-carbonyl)-1-oxoisoindolin-2-yl)piperidine-2,6-dione]
IC50 [1]: < 500 nM | substrate protein remaining % GSPT1 (GSPT1): A (A represents 0% ≤ substrate protein remaining % ≤ 50%) | substrate protein remaining % IKZF3 (IKZF3): B (B represents substrate protein remaining % > 50%) | substrate protein remaining % IKZF1 (IKZF1): B (B represents substrate protein remaining % > 50%)

CC1CN(C(c2ccccc2)c2ccccc2)CC(C)N1C(=O)c1ccc2c(c1)C(=O)N(C1CCC(=O)NC1=O)C2=O (stereo not drawn) [GT-05922, 5-(4-benzhydryl-2,6-dimethylpiperazine-1-carbonyl)-2-(2,6-dioxopiperidin-3-yl) isoindoline-1,3-dione]
IC50 [1]: 1000 to 1900 nM | substrate protein remaining % GSPT1 (GSPT1): A (A represents 0% ≤ substrate protein remaining % ≤ 50%) | substrate protein remaining % IKZF3 (IKZF3): B (B represents substrate protein remaining % > 50%) | substrate protein remaining % IKZF1 (IKZF1): B (B represents substrate protein remaining % > 50%)

O=C1CCC(N2Cc3cc(C(=O)N4CCC(N(c5ccccc5)c5ccccn5)CC4)ccc3C2=O)C(=O)N1 (stereo not drawn) [GT-05923, 3-(1-oxo-5-(4-(phenyl(pyridin-2-yl)amino)piperidine-1-carbonyl)isoindolin-2-yl)piperidine-2,6-dione]
IC50 [1]: < 500 nM | substrate protein remaining % GSPT1 (GSPT1): A (A represents 0% ≤ substrate protein remaining % ≤ 50%) | substrate protein remaining % IKZF3 (IKZF3): B (B represents substrate protein remaining % > 50%) | substrate protein remaining % IKZF1 (IKZF1): B (B represents substrate protein remaining % > 50%)

O=C1CCC(N2Cc3cc(C(=O)N4CCC(N(c5ccccc5)c5ccccn5)CC4)cc(F)c3C2=O)C(=O)N1 (stereo not drawn) [GT-05924, 3-(7-fluoro-1-oxo-5-(4-(phenyl(pyridin-2-yl)amino)piperidine-1-carbonyl)isoindolin-2-yl)piperidine-2,6-dione]
IC50 [1]: 500 to 1000 nM | substrate protein remaining % GSPT1 (GSPT1): A (A represents 0% ≤ substrate protein remaining % ≤ 50%) | substrate protein remaining % IKZF3 (IKZF3): B (B represents substrate protein remaining % > 50%) | substrate protein remaining % IKZF1 (IKZF1): B (B represents substrate protein remaining % > 50%)

O=C1CCC(N2Cc3cc(C(=O)N4CCC(N(c5ccccc5)c5ccccc5)CC4)ccc3C2=O)C(=O)N1 (stereo not drawn) [GT-05926, 3-(5-(4-(diphenylamino)piperidine-1-carbonyl)-1-oxoisoindolin-2-yl)piperidine-2,6-dione]
IC50 [1]: < 500 nM | substrate protein remaining % GSPT1 (GSPT1): A (A represents 0% ≤ substrate protein remaining % ≤ 50%) | substrate protein remaining % IKZF3 (IKZF3): B (B represents substrate protein remaining % > 50%) | substrate protein remaining % IKZF1 (IKZF1): B (B represents substrate protein remaining % > 50%)

O=C1CCC(N2Cc3cc(C(=O)N4CCC(N(c5ccccc5)c5ccccc5)CC4)cc(F)c3C2=O)C(=O)N1 (stereo not drawn) [GT-05927, 3-(5-(4-(diphenylamino)piperidine-1-carbonyl)-7-fluoro-1-oxoisoindolin-2-yl)piperidine-2,6-dione]
IC50 [1]: < 500 nM | substrate protein remaining % GSPT1 (GSPT1): A (A represents 0% ≤ substrate protein remaining % ≤ 50%) | substrate protein remaining % IKZF3 (IKZF3): B (B represents substrate protein remaining % > 50%) | substrate protein remaining % IKZF1 (IKZF1): B (B represents substrate protein remaining % > 50%)

O=C1CCC(N2Cc3c(C(=O)N4CCN(C(c5ccccc5)c5ccccn5)CC4)cccc3C2=O)C(=O)N1 (stereo not drawn) [GT-05929, 3-(1-oxo-4-(4-(phenyl(pyridin-2-yl)methyl)piperazine-1-carbonyl)isoindolin-2-yl)piperidine-2,6-dione]
IC50 [1]: 500 to 1000 nM | substrate protein remaining % GSPT1 (GSPT1): A (A represents 0% ≤ substrate protein remaining % ≤ 50%) | substrate protein remaining % IKZF3 (IKZF3): A (A represents 0% ≤ substrate protein remaining % ≤ 50%) | substrate protein remaining % IKZF1 (IKZF1): A (A represents 0% ≤ substrate protein remaining % ≤ 50%)

O=C1CCC(N2Cc3c(C(=O)N4CCN(C(c5ccc(F)cc5)c5ccc(F)cc5)CC4)cccc3C2=O)C(=O)N1 (stereo not drawn) [GT-05930, 3-(4-(4-(bis(4-fluorophenyl)methyl)piperazine-1-carbonyl)-1-oxoisoindolin-2-yl)piperidine-2,6-dione]
IC50 [1]: < 500 nM | substrate protein remaining % GSPT1 (GSPT1): A (A represents 0% ≤ substrate protein remaining % ≤ 50%) | substrate protein remaining % IKZF3 (IKZF3): B (B represents substrate protein remaining % > 50%) | substrate protein remaining % IKZF1 (IKZF1): B (B represents substrate protein remaining % > 50%)
